Test system: 855422-203-R-J1-PDC complex spheroid growth
Experiment: Anticancer human tumor 855422-203-R-J1-PDC patient-derived bladder carcinoma cell line growth inhibition [AhR]
Settings: for IC50: curve of first compound; for viability, T/C: stronger effect = lower value
In short: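 Spheroids combined tumor cells with HUVEC endothelial cells and human MSCs as stroma. AhR antagonists were paired with standard or investigational drugs, each dosed in half-log steps down from near clinical Cmax, or from 10 microM where Cmax was unknown.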

[1] = second compound 0.1 µM, first compound 0.0316 µM
[2] = second compound 0.1 µM, first compound 0.1 µM
[3] = second compound 0.1 µM, first compound 0.316 µM
[4] = second compound 0.1 µM, first compound 1 µM
[5] = second compound 0.1 µM, first compound 3.16 µM
[6] = second compound 0.1 µM, first compound 10 µM
[7] = second compound 0.316 µM, first compound 0.0316 µM
[8] = second compound 0.316 µM, first compound 0.1 µM
[9] = second compound 0.316 µM, first compound 0.316 µM
[10] = second compound 0.316 µM, first compound 1 µM
[11] = second compound 0.316 µM, first compound 3.16 µM
[12] = second compound 0.316 µM, first compound 10 µM
[13] = second compound 1 µM, first compound 0.0316 µM
[14] = second compound 1 µM, first compound 0.1 µM
[15] = second compound 1 µM, first compound 0.316 µM
[16] = second compound 1 µM, first compound 1 µM
[17] = second compound 1 µM, first compound 3.16 µM
[18] = second compound 1 µM, first compound 10 µM
[19] = second compound 3.16 µM, first compound 0.0316 µM
[20] = second compound 3.16 µM, first compound 0.1 µM
[21] = second compound 3.16 µM, first compound 0.316 µM
[22] = second compound 3.16 µM, first compound 1 µM
[23] = second compound 3.16 µM, first compound 3.16 µM
[24] = second compound 3.16 µM, first compound 10 µM
[25] = second compound 10 µM, first compound 0.0316 µM
[26] = second compound 10 µM, first compound 0.1 µM
[27] = second compound 10 µM, first compound 0.316 µM
[28] = second compound 10 µM, first compound 1 µM
[29] = second compound 10 µM, first compound 3.16 µM
[30] = second compound 10 µM, first compound 10 µM
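Note: spheroids exposed to agents for seven days before readout.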
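Throughout, for viability, T/C: percent of DMSO vehicle control luminescence viability.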

## O=C(c1cc(Cc2n[nH]c(=O)c3ccccc23)ccc1F)N1CCN(C(=O)C2CC2)CC1 + Cc1ccccc1N=Nc1ccc(NC(=O)c2ccnn2C)c(C)c1
Second compound 0.1 µM
  IC50: > 10 µM
Second compound 0.316 µM
  IC50: > 10 µM
Second compound 1 µM
  IC50: > 10 µM
Second compound 3.16 µM
  IC50: > 10 µM
Second compound 10 µM
  IC50: > 10 µM
[1]
  viability, T/C: 96.5%
[2]
  viability, T/C: 102%
[3]
  viability, T/C: 99.3%
[4]
  viability, T/C: 95.1%
[5]
  viability, T/C: 90.9%
[6]
  viability, T/C: 93.2%
[7]
  viability, T/C: 102%
[8]
  viability, T/C: 100%
[9]
  viability, T/C: 97.8%
[10]
  viability, T/C: 93.1%
[11]
  viability, T/C: 94.2%
[12]
  viability, T/C: 93.1%
[13]
  viability, T/C: 97.6%
[14]
  viability, T/C: 102%
[15]
  viability, T/C: 103%
[16]
  viability, T/C: 100%
[17]
  viability, T/C: 101%
[18]
  viability, T/C: 94.6%
[19]
  viability, T/C: 90.2%
[20]
  viability, T/C: 91.7%
[21]
  viability, T/C: 92.2%
[22]
  viability, T/C: 94.3%
[23]
  viability, T/C: 93.3%
[24]
  viability, T/C: 84.2%
[25]
  viability, T/C: 80.9%
[26]
  viability, T/C: 79.3%
[27]
  viability, T/C: 76.9%
[28]
  viability, T/C: 79.7%
[29]
  viability, T/C: 74%
[30]
  viability, T/C: 63.6%

## CC(C)c1c(-c2ccccc2)nc2c(C#N)c[nH]n2c1=O + Cc1ccccc1N=Nc1ccc(NC(=O)c2ccnn2C)c(C)c1
Second compound 0.1 µM
  IC50: > 10 µM
Second compound 0.316 µM
  IC50: > 10 µM
Second compound 1 µM
  IC50: > 10 µM
Second compound 3.16 µM
  IC50: > 10 µM
Second compound 10 µM
  IC50: > 10 µM
[1]
  viability, T/C: 98.4%
[2]
  viability, T/C: 105%
[3]
  viability, T/C: 94.5%
[4]
  viability, T/C: 92.9%
[5]
  viability, T/C: 89.5%
[6]
  viability, T/C: 89%
[7]
  viability, T/C: 106%
[8]
  viability, T/C: 99%
[9]
  viability, T/C: 96.9%
[10]
  viability, T/C: 104%
[11]
  viability, T/C: 91.2%
[12]
  viability, T/C: 93%
[13]
  viability, T/C: 95.8%
[14]
  viability, T/C: 103%
[15]
  viability, T/C: 96.5%
[16]
  viability, T/C: 101%
[17]
  viability, T/C: 91.4%
[18]
  viability, T/C: 90.5%
[19]
  viability, T/C: 94.4%
[20]
  viability, T/C: 93.7%
[21]
  viability, T/C: 89.7%
[22]
  viability, T/C: 88.7%
[23]
  viability, T/C: 89.5%
[24]
  viability, T/C: 82.1%
[25]
  viability, T/C: 81.8%
[26]
  viability, T/C: 83.6%
[27]
  viability, T/C: 76.9%
[28]
  viability, T/C: 86%
[29]
  viability, T/C: 76.5%
[30]
  viability, T/C: 73.6%

From PubChem BioAssay AID1919005 (Molecular Pharmacology Branch, DTP, NCI, 2023)
